Our source for the inhibition values is ChEMBL document CHEMBL2007661, “Compounds: GSK PKIS; Assays: UNC Frye lab” (2012).

Values joined by “and” are separate entries in the source; they are usually repeats but may differ in a detail not shown here. Equal entries are not always repeated.

For assay [1], the target named is T1, Inhibitor of nuclear factor kappa-B kinase subunit beta (Homo sapiens) (UniProt O14920).
T1 sequence (whole entry): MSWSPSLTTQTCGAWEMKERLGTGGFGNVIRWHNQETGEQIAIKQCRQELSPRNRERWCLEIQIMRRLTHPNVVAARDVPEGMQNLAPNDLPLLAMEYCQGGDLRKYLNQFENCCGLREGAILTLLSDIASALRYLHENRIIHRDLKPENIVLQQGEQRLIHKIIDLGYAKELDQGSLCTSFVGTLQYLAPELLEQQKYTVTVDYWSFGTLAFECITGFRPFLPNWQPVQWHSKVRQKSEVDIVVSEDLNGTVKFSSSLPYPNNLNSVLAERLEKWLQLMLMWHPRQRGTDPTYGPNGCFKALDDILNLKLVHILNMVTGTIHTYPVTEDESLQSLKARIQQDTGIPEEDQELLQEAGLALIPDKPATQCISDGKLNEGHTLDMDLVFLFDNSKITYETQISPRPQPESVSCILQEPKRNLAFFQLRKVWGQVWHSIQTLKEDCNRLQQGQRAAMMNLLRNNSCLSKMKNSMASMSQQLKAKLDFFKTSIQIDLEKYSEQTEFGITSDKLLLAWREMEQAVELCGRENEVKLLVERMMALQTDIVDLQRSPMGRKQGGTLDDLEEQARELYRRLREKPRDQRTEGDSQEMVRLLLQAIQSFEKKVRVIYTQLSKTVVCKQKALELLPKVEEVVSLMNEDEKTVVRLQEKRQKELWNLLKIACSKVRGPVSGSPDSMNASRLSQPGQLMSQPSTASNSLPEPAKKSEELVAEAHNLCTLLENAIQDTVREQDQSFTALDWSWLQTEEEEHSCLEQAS
The settings on record: at 1 µM.

Assay [2] has as its target T2, Serine/threonine-protein kinase TBK1 (Homo sapiens) (UniProt Q9UHD2).
T2 sequence (whole entry): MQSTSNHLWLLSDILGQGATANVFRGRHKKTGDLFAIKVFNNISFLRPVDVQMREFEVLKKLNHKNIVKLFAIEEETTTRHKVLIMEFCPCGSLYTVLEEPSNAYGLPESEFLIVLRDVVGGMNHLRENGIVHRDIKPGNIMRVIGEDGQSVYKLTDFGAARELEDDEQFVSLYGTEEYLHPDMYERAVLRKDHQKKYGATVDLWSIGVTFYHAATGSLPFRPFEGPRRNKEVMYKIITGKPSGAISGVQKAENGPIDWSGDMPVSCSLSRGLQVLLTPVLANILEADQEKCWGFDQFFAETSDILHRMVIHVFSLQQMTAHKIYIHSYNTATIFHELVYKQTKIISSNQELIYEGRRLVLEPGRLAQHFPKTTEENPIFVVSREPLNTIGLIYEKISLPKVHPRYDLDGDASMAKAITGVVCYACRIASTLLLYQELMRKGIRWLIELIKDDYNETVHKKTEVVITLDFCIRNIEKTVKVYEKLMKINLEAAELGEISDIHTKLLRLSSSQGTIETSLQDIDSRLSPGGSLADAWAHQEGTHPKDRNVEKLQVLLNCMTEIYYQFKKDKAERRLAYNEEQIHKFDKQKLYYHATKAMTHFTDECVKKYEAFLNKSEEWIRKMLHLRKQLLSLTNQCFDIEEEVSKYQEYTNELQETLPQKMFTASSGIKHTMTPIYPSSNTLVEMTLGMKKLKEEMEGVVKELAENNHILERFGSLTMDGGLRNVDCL
The settings on record: at 1 µM.

For orientation: inhibition means the drop in the measured response relative to a control, in per cent. `O=C1NC(=O)C(N2CCc3ccccc32)=C1c1ccc(Cl)cc1`: the inhibition was 3% and 2% in assay [1]; 1% in assay [2].

Regarding `c1ccc(-c2nc3n(c2-c2ccc4c(c2)OCO4)CCC3)nc1`, the inhibition in assay [1] is -5% and -3%; in assay [2], 5%.

Regarding `COc1cccc(-n2nc(C)c3c(N/N=C(\C)c4ccncc4)ncnc32)c1`, the inhibition in assay [1] is -3%; in assay [2], 4% and 2%.

As for `COc1ccc(C2=C(N3CCc4ccccc43)C(=O)NC2=O)cc1`, the inhibition in assay [1] was -2% and -6%; in assay [2], 0% and 3%.

Regarding `COC(=O)Nc1nc2cc(Oc3cccc(NC(=O)Nc4cc(C(F)(F)F)ccc4F)c3)ccc2[nH]1`, the inhibition in assay [1] was 0% and 5%; in assay [2] it was -2%.

As to `CS(=O)(=O)Nc1ccc(-c2cc(-c3ccccc3)cc(C(N)=O)c2N)cc1`, the inhibition in assay [1] was -1% and -4%; in assay [2], -2% and -4%.

Regarding `c1ccc(Nc2ncc(-c3ccccc3)o2)cc1`, the inhibition in assay [1] was -4%; in assay [2], 2% and 1%.

As to `CC(C)c1ccc(Nc2nccc(-c3cnn4ncccc34)n2)cc1`, the inhibition is -4% and -10% in assay [1]; 18% and 19% in assay [2].

Regarding `O=C(NCC1CC1)c1ccc(-c2cccc(C(=O)NC3CC3)c2)cc1`, the inhibition was 1% and 4% in assay [1]; 2% and 1% in assay [2].

Regarding `CN(C)C(=O)O[C@H]1CN[C@H](C#Cc2cc3ncnc(Nc4ccc(OCc5cccc(F)c5)c(Cl)c4)c3s2)C1`, the inhibition in assay [1] is 4% and -2%; in assay [2], 7% and 8%.

On to `COC(=O)Nc1nc2ccc(Oc3ccc(NC(=O)Nc4cccc(Cl)c4)cc3)cc2[nH]1`, for which the inhibition is -2% and 0% in assay [1]; 0% and 2% in assay [2].

With `COc1cccc(-n2cnc3c(N/N=C/c4ccncc4)ncnc32)c1`, the inhibition is -3% and 4% in assay [1]; 4% and -1% in assay [2].

`CCn1c(-c2nonc2N)nc2cnc(Oc3cccc(NC(=O)c4ccc(N(C)C)cc4)c3)cc21`: the inhibition in assay [1] was -1% and -2%; in assay [2] it was 4% and 1%.

As to `CNC(=O)c1cncc(/C=C/c2ccccc2C)c1`, the inhibition was -1% and -3% in assay [1]; 2% and 5% in assay [2].

Regarding `NS(=O)(=O)c1ccc(N/N=C2\C(=O)Nc3ccc(C(=O)NCCCn4ccnc4)cc32)cc1`, the inhibition in assay [1] is -1%; in assay [2], 42% and 41%.

Regarding `CS(=O)(=O)CCNCc1ccc(-c2ccc3ncnc(Nc4ccc(OCc5ccccc5)cc4)c3c2)o1`, the inhibition in assay [1] was -2% and -3%; in assay [2], -1% and -2%.

With `Cc1nn(C)c2cc(N(C)c3ccnc(Nc4cccc(S(N)(=O)=O)c4)n3)ccc12`, the inhibition in assay [1] is -2% and 4%; in assay [2], 1% and 5%.

With `CC1=C(C(=O)Nc2ccc3[nH]ncc3c2)C(c2ccc(Cl)c(Cl)c2)CC(=O)N1` (stereo not given), the inhibition in assay [1] is 2%; in assay [2], 3% and 2%.

`COc1cc(C)c(N(C)C(=O)CN(C)C)cc1Nc1nc(Nc2cccc(F)c2C(N)=O)c2cc[nH]c2n1`: the inhibition is -3% and -6% in assay [1]; -4% and -3% in assay [2].

As for `NC(=O)c1sc(-n2cnc3ccc(C(F)(F)F)cc32)cc1OCc1ccccc1Br`, the inhibition was -1% and -4% in assay [1]; 21% and 4% in assay [2].

Regarding `CN1CCC(n2cnc(-c3ccc(F)cc3)c2-c2ccnc(Nc3ccccc3)n2)CC1`, the inhibition in assay [1] is -3% and 2%; in assay [2] it was 0% and -2%.

In the case of `CNC(=O)c1ncccc1Nc1nc(Nc2cc3c(cc2OC)CCCN3C(=O)CN(C)C)nc2[nH]ccc12`, the inhibition in assay [1] was -5% and -3%; in assay [2], 8% and 12%.

Consider `O=C(O[C@H]1CN[C@H](C#Cc2cc3ncnc(Nc4ccc5c(cnn5Cc5ccccc5)c4)c3s2)C1)N1CCOCC1`, for which the inhibition in assay [1] was -4% and -7%; in assay [2] it was 26% and 31%.

With `CN(c1ccc(NC(=O)NCCN2CCOCC2)cc1)c1ccnc(Nc2ccc(CS(C)(=O)=O)cc2)n1`, the inhibition in assay [1] is 2% and -2%; in assay [2] it was 3% and 2%.

For the compound `NCc1ccc(-n2c(-c3nonc3N)nc3cnccc32)cc1`, the inhibition was -6% and -2% in assay [1]; 6% and 5% in assay [2].

As for `NS(=O)(=O)c1ccc(N/N=C2\C(=O)Nc3cccc(CCc4ccncc4)c32)cc1`, the inhibition is -7% in assay [1]; 29% and 25% in assay [2].

On to `CCn1c(-c2nonc2N)nc2ccncc21`, for which the inhibition in assay [1] is -4% and -5%; in assay [2] it was -4% and -5%.

`CC1(C)CC(n2cnc(-c3ccc(F)cc3)c2-c2ccnc(N)n2)CC(C)(C)N1`: the inhibition was -3% and -4% in assay [1]; -5% and -3% in assay [2].

For `Cc1nnc(-c2ccc(C)c(-c3ccc(C(=O)Nc4cccc(C#N)c4)cc3)c2)o1`, the inhibition in assay [1] is 0% and -2%; in assay [2] it was -2%.

As for `Fc1ccc(-c2nn3ccccc3c2-c2ccncc2)cc1`, the inhibition is -5% in assay [1]; -4% and -8% in assay [2].

For the compound `NS(=O)(=O)c1ccc(N/N=C2\C(=O)Nc3ccc(C(=O)NCc4ccncc4)cc32)cc1`, the inhibition is -1% and 0% in assay [1]; 59% and 60% in assay [2].

In the case of `Nc1nccc(-c2c(-c3ccc(F)cc3)nn3cc(C(F)(F)F)ccc23)n1`, the inhibition in assay [1] is -2% and -4%; in assay [2], -3% and 1%.

As for `O=C(Nc1n[nH]c2nnc(-c3cccnc3)cc12)C1CC1`, the inhibition was 2% in assay [1]; 5% and 3% in assay [2].

Turning to `CS(=O)(=O)Nc1cccc(-c2ccc3c(NC(=O)C4CC4)n[nH]c3c2)c1`, the inhibition is -6% in assay [1]; 3% and 5% in assay [2].

As to `OCc1ccc(-c2nc(-c3ccccn3)c(-c3ccc4c(c3)OCO4)[nH]2)cc1`, the inhibition in assay [1] was -4% and -3%; in assay [2] it was -6% and -5%.

Turning to `CCn1c(-c2nonc2N)nc2c(N3CCCC3)nccc21`, the inhibition was -6% and -5% in assay [1]; -8% and -4% in assay [2].

On to `O=S(=O)(CCNCc1ccc(-c2ccc3ncnc(Nc4ccc(OCc5cccc(F)c5)c(Cl)c4)c3c2)o1)c1ccccc1`, for which the inhibition in assay [1] was 0% and -2%; in assay [2], 12% and 18%.

`COc1cc(/C=N/Nc2ncnc3c2cnn3C(C)C)ccc1O`: the inhibition in assay [1] was 4% and 0%; in assay [2], 9% and 8%.

Turning to `NS(=O)(=O)c1ccc(Nc2cc(-c3ccc(O)c(F)c3)n[nH]2)cc1`, the inhibition in assay [1] was -2% and -1%; in assay [2], 16% and 17%.

As for `O=C(Nc1ccc(Oc2ccc3[nH]c(NC(=O)c4ccccc4)nc3c2)cc1)Nc1cc(C(F)(F)F)ccc1F`, the inhibition in assay [1] is -2% and 2%; in assay [2] it was 6% and 3%.

Take `COC(=O)Nc1nc2cc(Oc3ccc(NC(=O)Nc4cccc(C(=O)O)c4)cc3)ccc2[nH]1`: the inhibition in assay [1] is -3% and 3%; in assay [2] it was -5% and -2%.

Regarding `CCN1CCC(CC(=O)Nc2n[nH]c3nc(-c4cccs4)c(Br)cc23)CC1`, the inhibition was -4% and -3% in assay [1]; 8% and 6% in assay [2].

Consider `Nc1ncnc2occ(-c3ccc(NC(=O)Nc4cccc(C(F)(F)F)c4)cc3)c12`, for which the inhibition in assay [1] was -7% and -9%; in assay [2] it was 0% and -1%.

`COc1cc(Nc2ncc3c(C)nc(-c4cccc(C(F)(F)F)c4)n3n2)cc(OC)c1OC`: the inhibition was -4% and -5% in assay [1]; 53% and 45% in assay [2].

As for `COc1cc(C)c(NC(=O)CN(C)C)cc1Nc1nc(Nc2cccc(F)c2C(N)=O)c2cc[nH]c2n1`, the inhibition was -1% and 18% in assay [1]; 30% and 32% in assay [2].

As to `COc1cc(C=NNc2ncnc3c2cnn3-c2ccccc2)ccc1O`, the inhibition in assay [1] was 2%; in assay [2], 38% and 42%.

Consider `CN1CCC(C(=O)Nc2n[nH]c3nnc(-c4ccccc4)cc23)CC1`, for which the inhibition was -4% in assay [1]; -3% and -7% in assay [2].

Regarding `CS(=O)(=O)CCNCc1nc(-c2ccc3ncnc(Nc4ccc(OCc5cccc(C(F)(F)F)c5)cc4)c3c2)cs1`, the inhibition in assay [1] is -2% and -1%; in assay [2], -2% and 1%.

As for `Cc1nc(-c2ccccc2)n2nc(NCCCN3CCOCC3)ncc12`, the inhibition in assay [1] is -2% and 2%; in assay [2] it was 5% and 8%.

With `O=C(Nc1ccc(Oc2ccc3[nH]c(NC(=O)c4ccco4)nc3c2)cc1)Nc1cc(C(F)(F)F)ccc1F`, the inhibition in assay [1] was 0% and 1%; in assay [2] it was 0% and 2%.
